Experiment: wn = mass fraction of the nth substance listed
Details: 400 kPa, Liquid, Concentric cylinders viscometry

CN(CCO)CCO [N-methyldiethanolamine] + O
viscosity [mPa·s]
Details | w1 = 0.3 | w1 = 0.4 | w1 = 0.5 | w1 = 0.6 | w1 = 0.7 | w1 = 0.8 | w1 = 0.9 | w1 = 0.95 | w1 = 1
298.15 K | 3.02 | 5.21 | 9.13 | 16.91 | 30.09 | 53.42 | 75.12 | 76.07 | 73.1
303.15 K | 2.64 | 4.41 | 7.51 | 13.4 | 23.11 | 40.03 | 56.05 | 57.55 | 55.89
308.15 K | 2.28 | 3.71 | 6.17 | 10.73 | 18.01 | 30.42 | 42.37 | 44.18 | 43.45
313.15 K | 1.97 | 3.15 | 5.13 | 8.68 | 14.22 | 23.47 | 32.56 | 34.3 | 34.15
318.15 K | 1.75 | 2.73 | 4.34 | 7.15 | 11.42 | 18.44 | 25.45 | 27.04 | 27.15
323.15 K | 1.54 | 2.36 | 3.68 | 5.92 | 9.26 | 14.67 | 20.13 | 21.55 | 21.82
328.15 K | 1.38 | 2.07 | 3.18 | 4.99 | 7.64 | 11.84 | 16.18 | 17.38 | 17.79
333.15 K | 1.24 | 1.83 | 2.76 | 4.23 | 6.36 | 9.67 | 13.16 | 14.14 | 14.63
338.15 K | 1.15 | 1.65 | 2.43 | 3.66 | 5.38 | 8.02 | 10.81 | 11.64 | 12.2
343.15 K | 1.06 | 1.49 | 2.16 | 3.18 | 4.59 | 6.71 | 8.98 | 9.66 | 10.21
348.15 K | 0.97 | 1.35 | 1.92 | 2.77 | 3.94 | 5.66 | 7.52 | 8.09 | 8.6
353.15 K | 0.89 | 1.22 | 1.72 | 2.43 | 3.41 | 4.81 | 6.35 | 6.82 | 7.31
358.15 K | 0.84 | 1.13 | 1.58 | 2.18 | 3 | 4.16 | 5.44 | 5.83 | 6.29
363.15 K | 0.81 | 1.05 | 1.45 | 1.97 | 2.65 | 3.63 | 4.69 | 5.01 | 5.43
368.15 K | 0.79 | 0.97 | 1.33 | 1.77 | 2.37 | 3.18 | 4.09 | 4.33 | 4.72
373.15 K | 0.76 | 0.91 | 1.23 | 1.61 | 2.12 | 2.82 | 3.58 | 3.77 | 4.12

— the NIST ThermoML archive (doi:10.1021/acs.jced.9b00021)
